These are literature values, as cited in US10751294B1, “Development of an optimized avanafil-loaded invasomal transdermal film” (King Abdulaziz University, priority 2019, dated 2020).

As a reminder, the log P is the decadic logarithm of the partition coefficient of the neutral form, usually between octanol and water. What is called solubility is the concentration that dissolves in the medium under given conditions.

Like-named read-outs stand apart in the source and are kept apart here.

Experiment in data set [1]: not given
This is another data set of the same source.

The conditions of data set [2]: in water, methanol, and ethanol at 25° C.
Experiment in data set [3]: not given
This is another data set of the same source.

With `COc1ccc(CN=c2[nH]c(N3CCC[C@H]3CO)ncc2C(=O)NCc2ncccn2)cc1Cl` [AVA, Avanafil], the “pKa (acidic)” value was 11.84 and the “pKa (basic)” value is 5.89. The “log P” value in data set [1] was 1.84. The solubility in data set [2] was under 1000 µg/mL.

For `O=C(O)CN(CC(=O)O)Cc1cc2c(cc1O)Oc1cc(O)c(CN(CC(=O)O)CC(=O)O)cc1C21OC(=O)c2ccccc21` [calcein], the “drug permeation enhanced (fold)” value is reported as 7.2 fold in data set [3] (from invasomes) and 1.8 fold in data set [3] (from transfersomes).
